According to patent US20220409617A1, “Drug Formulations and Methods of Treatment for Metabolic Disorders” (The Regents of the University of California, priority 2019, published 2022):

Test system: A549 lung cancer cells
Assay: KRAS-mediated mitochondrial fission in A549 cells
Type: cell-based, human
Conditions: A549, oncogenic KRAS; 893 5 μM 1 h, leflunomide 50 μM 24 h
Experimental: 3T3-L1 cells were maintained in DMEM with 10% FBS and 1% penicillin-streptomycin until induced to differentiate. 3T3-L1 pre-adipocytes were differentiated as described in (M. P. Valley, et al., Anal. Biochem. 505: 43-50, 2016, the disclosure of which is incorporated herein by reference) with slight modifications. Briefly, pre-adipocytes were grown to confluence. After 2 d, cells were induced with maintenance media containing 500 μM IBMX (15879, Sigma-Aldrich, St. Louis, Mo.), 1 μM dexamethasone (D4902, Sigma-Aldrich), 5 μg/mL bovine insulin (10516, Sigma-Aldrich), and 5 μM troglitazone (50-115-0786, ApexBio). Media was changed every 2-3 d for 7 d. On day 7 post-induction, media was changed to maintenance media+5 μg/mL bovine insulin. On day 9 post-induction, media was changed to maintenance media. Mature adipocytes were used 12-14 d post-induction for all experiments. LSL-KrasG12D mouse embryonic fibroblasts (MEFs) with and without Cre-mediated deletion of the STOP cassette were obtained from David Tuveson (Cold Spring Harbor Laboratory, Cold Spring Harbor N.Y., USA) in 2000. p53^flox/flox MEFs were derived in house (2015) from C57BL/6 mice using standard techniques and immortalized by transient expression of Cre recombinase and deletion of p53. MEFs were cultured and maintained in DMEM with 10% FBS and 1% penicillin-streptomycin. A549 cells were cultured in DMEM with 10% FBS, 1% penicillin-streptomycin and 1% sodium pyruvate. Stock solution of palmitic acid (ACROS Organics, cat # AC129702500) was prepared at 100 mM in ethanol. Palmitate (250 μM) was conjugated to 1% (w/v) fatty-acid free bovine serum albumin (Sigma, A8806) in DMEM at 37° C. for 20 min. For all immunofluorescence assays, 8,000 MEFs were seeded into 8-chamber slides (Cellvis, cat # C8-1.5H-N) 12-16 h before treatment. Cells were pre-treated with sphingolipid-like compound 893 (5 μM in water), myriocin (10 μM in methanol), fumonisin-B1 (30 μM in DMSO), or celastrol (500 nM in DMSO) for 3 h followed by a 3 h treatment with BSA-conjugated palmitate mixture or BSA alone. […]
MEFs were washed twice with PBS and fixed with 4% paraformaldehyde for 10 min at RT. […] NADH/NADPH autofluorescence was detected with 740 nm excitation and 450±50 nm detectors using a Mai Tai two-photon laser. Fluorescence microscopy was performed on a Zeiss LSM 780 confocal using a 63× oil objective with a […] numerical aperture (NA) or using a Nikon TE2000-S inverted epifluorescence microscope with a 100× oil objective (1.3 NA) and a Photometrics CoolSNAP ES2 monochrome CCD camera. […]

CCCCCCCCc1ccc([C@H]2CCN[C@@H]2CO)cc1.Cl [compound 893]
Reversal of mitochondrial fragmentation / tubularity in A549 cells: rapidly corrected KRAS-mediated mitochondrial fission
